Reference: publication doi:10.1101/155374v1, “A trapped double bond-photoisomerization intermediate in a bacterial photoreceptor” (biorxiv, 2017)

Target: T1, Slr1393g3 (GAF3 domain of cyanobacteriochrome Slr1393) (Synechocystis sp. PCC 6803, UniProt P73184)
T1 construct: isolated GAF3 domain, residues 441-596 modelled (155 amino acids stated), N-terminal His tag (tag residues seen at both ends), expressed in E. coli; one monomer per ASU, dimer in solution for Pr state
T1 sequence (P73184 441-596): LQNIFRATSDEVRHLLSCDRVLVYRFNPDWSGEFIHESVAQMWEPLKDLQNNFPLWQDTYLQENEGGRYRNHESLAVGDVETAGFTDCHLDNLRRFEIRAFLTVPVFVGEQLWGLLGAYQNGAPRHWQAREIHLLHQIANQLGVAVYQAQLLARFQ
Assay: X-ray crystallography
Format: binding
Settings: covalent; thioether bond of Cys528 to C3(1) of PCB; 5DFY in vitro assembled Pr 1.6 A; 5DFX in vivo Pr 1.8 A; 5M82 Pg (15-E) 1.86 A; 5M85 X-ray induced intermediate 2.1 A

`C/C=C1/C(=C/c2[nH]c(/C=C3N=C(/C=C4\NC(=O)C(CC)=C4C)C(C)=C\3CCC(=O)O)c(CCC(=O)O)c2C)NC(=O)[C@@H]1C` [PCB, phycocyanobilin] was tested, and the X-ray crystallography was “The PCB chromophore is covalently bound to Cys528 on helix a4”.
